In patent publication US20080014187A1, “Compositions and Methods for Treating Hypertension and Inflammation” (priority 2006, published 2008):

Tests used:
[1] = case study, patient with hypertension, blood pressure and side effects; type: in vivo, human; details: 30 mg CoQ10 at 9 AM, patient on 40 mg telmisartan in the evening; reading by 12 PM, from 140/90 at 8 AM
Experimental: Because of these drug side effects, the patient subsequently dropped the amlodipine and took only a 40 mg daily dose of telmisartan in the evening before retiring. […] On one day with a reading of 140/90 at 8 AM, the patient took 30 mg of CoQ10 at 9 AM and their blood pressure sharply dropped to 103/71 by 12 PM. The patient subsequently began taking 30 mg CoQ10 in the morning and evening along with the evening only dose of 40 mg telmisartan.

[2] = eight human clinical trials; cited from earlier work
serum IL-6 and TNF-alpha = details: reported in the literature; cited from earlier work

| Compound | blood pressure [1] | decrease of mean diastolic blood pressure [2] [mm Hg] | decrease of mean systolic blood pressure [2] [mm Hg] | serum IL-6 (serum IL-6 and TNF-alpha) | serum TNF-alpha (serum IL-6 and TNF-alpha) |
| --- | --- | --- | --- | --- | --- |
| COC1=C(OC)C(=O)C(C/C=C(\C)CC/C=C(\C)CC/C=C(\C)CC/C=C(\C)CC/C=C(\C)CC/C=C(\C)CC/C=C(\C)CC/C=C(\C)CC/C=C(\C)CCC=C(C)C)=C(C)C1=O [CoQ10, Coenzyme Q10] | 103/71 | 10 | 16 | reduces | reduces |
| CCOC(=O)[C@H](CCc1ccccc1)N[C@@H](C)C(=O)N1Cc2ccccc2C[C@H]1C(=O)O [quinapril] |  |  |  | lower | lower |
